Patent publication US8461160B2, “Dihydropyrimidinones” (Hoffmann-La Roche, Inc., priority 2009, dated 2013)

Target: T1, BACE2 (Homo sapiens, UniProt Q9Y5Z0)
T1 construct: BACE2 enzyme ectodomain (derived from plasmid “pET17b-T7-hu proBACE2”) was prepared as described in Ostermann et al; T7 tag (N); made in house
T1 sequence (Q9Y5Z0 21-473 limits assumed): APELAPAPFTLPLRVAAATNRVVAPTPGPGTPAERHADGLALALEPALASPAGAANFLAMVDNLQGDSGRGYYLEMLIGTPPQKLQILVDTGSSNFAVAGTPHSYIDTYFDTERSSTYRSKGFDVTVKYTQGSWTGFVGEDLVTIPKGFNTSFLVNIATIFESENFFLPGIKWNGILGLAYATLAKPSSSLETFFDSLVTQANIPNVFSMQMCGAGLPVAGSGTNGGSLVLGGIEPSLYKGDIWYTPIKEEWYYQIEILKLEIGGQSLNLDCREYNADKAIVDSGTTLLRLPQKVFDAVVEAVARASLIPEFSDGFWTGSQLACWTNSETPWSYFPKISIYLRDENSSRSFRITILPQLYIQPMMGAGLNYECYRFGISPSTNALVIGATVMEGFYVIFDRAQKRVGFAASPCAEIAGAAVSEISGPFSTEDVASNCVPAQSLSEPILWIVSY
Experiment: Fluorescent-peptide cleavage assay for BACE2 inhibition
Type: biochemical
Conditions: BACE2 enzyme ectodomain, fluorescent peptide WS EVNLD AEFRC-MR121, assay buffer pH 4.5, room temperature
Experimental: Fluorescent-Peptide Cleavage Assay for BACE2 Inhibition
The pro-enzyme was stored at 4° C. at a concentration of 70 μg/ml.
A fluorescent peptide with the amino acid sequence WS EVNLD AEFRC-MR121 was synthesised and a stock solution of 1.5 mM in DMSO prepared and stored at −20° C. MR121 is a fluorophore with an excitation wavelength of 630 nm and emission wavelength of 695 nm. The MR121 fluorescence is quenched by the N-terminal tryptophan until the peptide is cleaved by BACE2.
Assays were all made in a Corning 384-well black polystyrene non-binding surface microtitre plate with clear flat bottom and using a Plate:Vision (Perkin Elmer) fluorescence reader. To perform the assay an 80 nM solution of BACE2 was prepared in assay buffer (assay buffer is 100 mM Na-acetate; 20 mM EDTA; 0.05% BSA; pH 4.5) and incubated at room temperature for 1 hour to activate the enzyme. 39 μl of the activated BACE2 was placed in each assay well, followed by 1 μl compound to be tested at an appropriate concentration in 100% DMSO. The plate was then mixed and incubated for 10 minutes at room temperature.
The assay readout is the rate of change of fluorescence intensity giving a relative measure of BACE2 activity. Small values correspond to high inhibition and larger values to low inhibition. […] IC50 values were determined using these assay values generated for a range of inhibitor concentrations and the curve fitting software XLfit (IDBS) using the Sigmoidal Dose-Response Model.

Row | SMILES | IC50 [nM]
1 | CN1C(=O)C[C@@](C)(c2cccc(NC(=O)c3ccc(Cl)cn3)c2)N=C1N [Example 10, 5-Chloro-pyridine-2-carboxylic acid [3-((S)-2-amino-1,4-dimethyl-6-oxo-1,4,5,6-tetrahydro-pyrimidin-4-yl)-phenyl]amide] | 7
2 | Cc1nc(C(=O)Nc2ccc(F)c([C@@]3(C)N=C(N)N(C)C(=O)C3(C)C)c2)co1 [Example 101, 2-Methyl-oxazole-4-carboxylic acid [3-((S)-2-amino-1,4,5,5-tetramethyl-6-oxo-1,4,5,6-tetrahydro-pyrimidin-4-yl)-4-fluoro-phenyl]amide] | 21
3 | CN1C(=O)C[C@@](C)(c2cccc(NC(=O)c3ccc(=O)n(C)n3)c2)N=C1N [Example 21, 1-Methyl-6-oxo-1,6-dihydro-pyridazine-3-carboxylic acid [3-((S)-2-amino-1,4-dimethyl-6-oxo-1,4,5,6-tetrahydro-pyrimidin-4-yl)-phenyl]amide] | 4200
4 | Cc1ccnc(C(=O)Nc2cccc([C@]3(C)CC(=O)N(C)C(N)=N3)c2)c1 [Example 30, 4-Methyl-pyridine-2-carboxylic acid [3-((S)-2-amino-1,4-dimethyl-6-oxo-1,4,5,6-tetrahydro-pyrimidin-4-yl)-phenyl]-amide] | 150
5 | CC[C@@]1(c2cccc(NC(=O)c3ccc(Cl)s3)c2)CC(=O)N(C)C(N)=N1 [Example 41, 5-Chloro-thiophene-2-carboxylic acid [3-((S)-2-amino-4-ethyl-1-methyl-6-oxo-1,4,5,6-tetrahydro-pyrimidin-4-yl)-phenyl]-amide] | 95
6 | Cc1cc(C(=O)Nc2cccc([C@]3(C)CC(=O)N(C)C(N)=N3)c2)n(C)n1 [Example 8, 2,5-Dimethyl-2H-pyrazole-3-carboxylic acid [3-((S)-2-amino-1,4-dimethyl-6-oxo-1,4,5,6-tetrahydro-pyrimidin-4-yl)-phenyl]amide] | 126
7 | CN1C(=O)C[C@@](C)(c2cccc(NC(=O)c3cc4cccnc4[nH]3)c2)N=C1N [Example 78, 1H-Pyrrolo[2,3-b]pyridine-2-carboxylic acid [3-((S)-2-amino-1,4-dimethyl-6-oxo-1,4,5,6-tetrahydro-pyrimidin-4-yl)-phenyl]-amide] | 800
8 | Cc1cc(C(=O)Nc2cccc([C@]3(C)CC(=O)N(C)C(N)=N3)c2)n(C2CC2)n1 [Example 79, 2-Cyclopropyl-5-methyl-2H-pyrazole-3-carboxylic acid [3-((S)-2-amino-1,4-dimethyl-6-oxo-1,4,5,6-tetrahydro-pyrimidin-4-yl)-phenyl]-amide] | 190
9 | CN1C(=O)C(C)(C)[C@@](C)(c2cc(NC(=O)c3ccc(C#N)cn3)ccc2F)N=C1N [Example 115, 5-Cyano-pyridine-2-carboxylic acid [3-((S)-2-amino-1,4,5,5-tetramethyl-6-oxo-1,4,5,6-tetrahydro-pyrimidin-4-yl)-4-fluoro-phenyl]amide] | 63
10 | CN1C(=O)C[C@@](C)(c2cccc(NC(=O)c3ncc(Cl)cn3)c2)N=C1N [Example 20, 5-Chloro-pyrimidine-2-carboxylic acid [3-((S)-2-amino-1,4-dimethyl-6-oxo-1,4,5,6-tetrahydro-pyrimidin-4-yl)-phenyl]amide] | 6
11 | CN1C(=O)C[C@]2(CCc3ccc(NC(=O)c4ncccc4C(F)(F)F)cc32)N=C1N [Example 130, N-[(1S)-2′-amino-1′-methyl-6′-oxo-2,3,5′,6′-tetrahydro-1′H-spiro[indene-1,4′-pyrimidin]-6-yl]-3-trifluoromethyl-pyridine-2-carboxamide] | 1340
12 | CCC[C@@]1(c2cccc(NC(=O)c3ccccn3)c2)CC(=O)N(C)C(N)=N1 [Example 88, Pyridine-2-carboxylic acid [3-((S)-2-amino-1-methyl-6-oxo-4-propyl-1,4,5,6-tetrahydro-pyrimidin-4-yl)-phenyl]-amide] | 1780
13 | C[C@@]1(c2cccc(NC(=O)c3ccc(Cl)cn3)c2)CC(=O)N(CC2CC2)C(N)=N1 [Example 124, 5-Chloro-pyridine-2-carboxylic acid [3-((S)-2-amino-1-cyclopropylmethyl-4-methyl-6-oxo-1,4,5,6-tetrahydro-pyrimidin-4-yl)-phenyl]amide] | 42
14 | CCC[C@@]1(c2cccc(NC(=O)c3ccn(C)n3)c2)CC(=O)N(C)C(N)=N1 [Example 89, 1-Methyl-1H-pyrazole-3-carboxylic acid [3-((S)-2-amino-1-methyl-6-oxo-4-propyl-1,4,5,6-tetrahydro-pyrimidin-4-yl)-phenyl]-amide] | 4750
15 | CCN1C(=O)C[C@@](C)(c2cccc(NC(=O)c3ccc(Cl)cn3)c2)N=C1N [Example 49, 5-Chloro-pyridine-2-carboxylic acid [3-((S)-2-amino-1-ethyl-4-methyl-6-oxo-1,4,5,6-tetrahydro-pyrimidin-4-yl)-phenyl]amide] | 15
16 | CN1C(=O)C[C@@](C)(c2cccc(NC(=O)c3ccc(Cl)cc3)c2)N=C1N [Example 18, N-[3-((S)-2-Amino-1,4-dimethyl-6-oxo-1,4,5,6-tetrahydro-pyrimidin-4-yl)-phenyl]-4-chloro-benzamide] | 50
17 | CN1C(=O)C[C@@](C)(c2cccc(NC(=O)c3coc(-c4ccccc4)n3)c2)N=C1N [Example 71, 2-Phenyl-oxazole-4-carboxylic acid [3-((S)-2-amino-1,4-dimethyl-6-oxo-1,4,5,6-tetrahydro-pyrimidin-4-yl)-phenyl]-amide] | 1310

More lines, in order of falling IC50, values ahead:

Row | IC50 [nM] | SMILES
18 | 1110 | CCC[C@@]1(c2cccc(NC(=O)c3coc(C)n3)c2)CC(=O)N(C)C(N)=N1 [Example 90, 2-Methyl-oxazole-4-carboxylic acid [3-((S)-2-amino-1-methyl-6-oxo-4-propyl-1,4,5,6-tetrahydro-pyrimidin-4-yl)-phenyl]-amide]
19 | 960 | CN1C(=O)C[C@@](C)(c2cccc(NC(=O)c3ccncc3)c2)N=C1N [Example 26, N-[3-((S)-2-Amino-1,4-dimethyl-6-oxo-1,4,5,6-tetrahydro-pyrimidin-4-yl)-phenyl]-isonicotinamide]
20 | 549 | CN1C(=O)C[C@@](C)(c2cccc(NC(=O)c3ccc(Cl)nc3)c2)N=C1N [Example 19, N-[3-((S)-2-Amino-1,4-dimethyl-6-oxo-1,4,5,6-tetrahydro-pyrimidin-4-yl)-phenyl]-6-chloro-nicotinamide]
21 | 390 | Cc1cnc(C(=O)Nc2cccc([C@]3(C)CC(=O)N(C)C(N)=N3)c2)[nH]1 [Example 84, 4-Methyl-1H-imidazole-2-carboxylic acid [3-((S)-2-amino-1,4-dimethyl-6-oxo-1,4,5,6-tetrahydro-pyrimidin-4-yl)-phenyl]-amide]
22 | 200 | CN1C(=O)C[C@@](C)(c2cccc(NC(=O)c3ccccc3)c2)N=C1N [Example 34, N-[3-((S)-2-Amino-1,4-dimethyl-6-oxo-1,4,5,6-tetrahydro-pyrimidin-4-yl)-phenyl]-benzamide]
23 | 160 | CN1C(=O)C[C@]2(CCc3ccc(NC(=O)c4ccc(Cl)cn4)cc32)N=C1N [Example 127, N-[(1S)-2′-amino-1′-methyl-6′-oxo-2,3,5′,6′-tetrahydro-1′H-spiro[indene-1,4′-pyrimidin]-6-yl]-5-chloropyridine-2-carboxamide]
24 | 30 | CN1C(=O)C[C@@](C)(c2cccc(NC(=O)c3cccc(Cl)n3)c2)N=C1N [Example 31, 6-Chloro-pyridine-2-carboxylic acid [3-((S)-2-amino-1,4-dimethyl-6-oxo-1,4,5,6-tetrahydro-pyrimidin-4-yl)-phenyl]-amide]
25 | 17 | C[C@H]1C(=O)N(C)C(N)=N[C@]1(C)c1cccc(NC(=O)c2ccc(Cl)cn2)c1 [Example 91, 5-Chloro-pyridine-2-carboxylic acid [3-((4S,5R)-2-amino-1,4,5-trimethyl-6-oxo-1,4,5,6-tetrahydro-pyrimidin-4-yl)-phenyl]amide]
26 | 11 | CC[C@@]1(c2cccc(NC(=O)c3ccc(Cl)cn3)c2)CC(=O)N(C)C(N)=N1 [Example 39, 5-Chloro-pyridine-2-carboxylic acid [3-((S)-2-amino-4-ethyl-1-methyl-6-oxo-1,4,5,6-tetrahydro-pyrimidin-4-yl)-phenyl]-amide]
27 | 10 | CN1C(=O)C(OCc2ccccc2)[C@@](C)(c2cc(NC(=O)c3ccc(Cl)cn3)ccc2F)N=C1N (stereo partly drawn) [Example 122, 5-Chloro-pyridine-2-carboxylic acid [3-((R)-2-amino-5-benzyloxy-1,4-dimethyl-6-oxo-1,4,5,6-tetrahydro-pyrimidin-4-yl)-4-fluoro-phenyl]amide]
